Assays:
[1] = Oral bioavailability in Sprague-Dawley rat at 2 mg/kg, IG administered as single dose and measured upto 24 hrs by LC-MS/MS analysis; assay type: ADME, organism-based; conditions: in vivo
[2] = Intrinsic clearance in CD1 mouse liver microsomes preincubated for 10 mins under shaking condition followed by NADPH generating system addition and measured up to 60 mins by LC-MS/MS analysis; assay type: ADME, Microsome; conditions: 1 h, time <=70 min
[3] = Toxicity in Balb/c nude mouse xenografted with human NCI-H1975 cells harboring EGFR L858R/T790M mutant assessed as change in body weight at 3 to 5 mg/kg, po QD administered via gavage for 24 days and measured twice weekly; assay type: organism-based; conditions: in vivo, 576 h, dose 3-5 mg/kg, time 24 day
in vivo [4] = conditions: Sprague-Dawley, rat, plasma, po, 6 mg/kg
Cytochrome P450 2D6 = Cytochrome P450 2D6 (Homo sapiens, UniProt P10635); experiment: Inhibition of CYP2D6 in human liver microsomes using dextromethorphan as substrate preincubated for 10 mins in presence of NADPH generating system followed by substrate addition and measured after 20 mins by LC-MS/MS analysis; assay type: ADME
[5] = Intrinsic clearance in Sprague-Dawley rat liver microsomes preincubated for 10 mins under shaking condition followed by NADPH generating system addition and measured up to 60 mins by LC-MS/MS analysis; assay type: ADME, Microsome; conditions: 1 h, time <=70 min
[6] = Drug metabolism in cynomolgus monkey liver microsomes assessed as 3,3-dideuterio-N-[4-methoxy-2-[methyl-[2-(methylamino)ethyl]amino]-5-[[4-[1-(trideuteriomethyl)indol-3-yl]pyrimidin-2-yl]amino]phenyl]prop-2-enamide metabolite formation preincubated for 10 mins under shaking condition followed by NADPH generating system addition and measured up to 60 mins by LC-MS/MS analysis; assay type: ADME, Macaca fascicularis, Microsome; conditions: 1 h, time <=70 min
in vivo [7] = conditions: Sprague-Dawley, rat, po, 6 mg/kg
Cytochrome P450 2C8 = biological target: T1, Cytochrome P450 2C8 (Homo sapiens, UniProt P10632); experiment: Inhibition of CYP2C8 in human liver microsomes using amodiaquine as substrate preincubated for 10 mins in presence of NADPH generating system followed by substrate addition and measured after 10 mins by LC-MS/MS analysis; assay type: ADME
T1 sequence (P10632 whole entry): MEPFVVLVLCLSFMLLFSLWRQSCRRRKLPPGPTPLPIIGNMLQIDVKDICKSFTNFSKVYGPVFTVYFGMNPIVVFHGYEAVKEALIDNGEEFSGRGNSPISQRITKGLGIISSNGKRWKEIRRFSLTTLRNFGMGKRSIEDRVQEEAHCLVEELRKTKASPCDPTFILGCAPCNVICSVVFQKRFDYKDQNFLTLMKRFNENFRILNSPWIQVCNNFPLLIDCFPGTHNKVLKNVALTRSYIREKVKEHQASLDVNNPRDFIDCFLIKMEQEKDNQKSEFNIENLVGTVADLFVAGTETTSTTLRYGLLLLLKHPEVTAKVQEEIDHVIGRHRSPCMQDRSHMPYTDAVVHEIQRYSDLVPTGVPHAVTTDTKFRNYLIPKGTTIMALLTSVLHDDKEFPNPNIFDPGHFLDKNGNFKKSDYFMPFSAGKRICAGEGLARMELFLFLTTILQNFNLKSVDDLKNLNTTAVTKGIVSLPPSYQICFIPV

[8] = Drug metabolism in cynomolgus monkey liver microsomes assessed as 3,3-dideuterio-N-[2-(2-dimethylaminoethylamino)-4-methoxy-5-[[4-[1-(trideuteriomethyl)indol-3-yl]pyrimidin-2-yl]amino]phenyl]prop-2-enamide metabolite formation preincubated for 10 mins under shaking condition followed by NADPH generating system addition and measured up to 60 mins by LC-MS/MS analysis; assay type: ADME, Macaca fascicularis, Microsome; conditions: 1 h, time <=70 min
[9] = Tmax in Sprague-Dawley rat at 12 mg/kg, IG administered as single dose and measured upto 24 hrs by LC-MS/MS analysis; assay type: ADME, organism-based; conditions: in vivo, po
in vivo [10] = conditions: Sprague-Dawley, rat, iv, 2 mg/kg
in vivo [11] = conditions: Sprague-Dawley, rat, po, 12 mg/kg
in vivo [12] = conditions: Sprague-Dawley, rat, po, 12 mg/kg; remark: listed apart in the source
[13] = Oral bioavailability in Sprague-Dawley rat at 12 mg/kg, IG administered as single dose and measured upto 24 hrs by LC-MS/MS analysis; assay type: ADME, organism-based; conditions: in vivo
[14] = Half life in CD1 mouse liver microsomes preincubated for 10 mins under shaking condition followed by NADPH generating system addition and measured up to 60 mins by LC-MS/MS analysis
[15] = Drug metabolism in cynomolgus monkey liver microsomes assessed as 3,3-dideuterio-N-[4-methoxy-2-(methylamino)-5-[[4-[1-(trideuteriomethyl)indol-3-yl]pyrimidin-2-yl]amino]phenyl]prop-2-enamide metabolite formation preincubated for 10 mins under shaking condition followed by NADPH generating system addition and measured up to 60 mins by LC-MS/MS analysis; assay type: ADME, Macaca fascicularis, Microsome; conditions: 1 h, time <=70 min
[16] = Cmax in Sprague-Dawley rat at 2 mg/kg, iv administered as single dose and measured upto 24 hrs by LC-MS/MS analysis; assay type: ADME, organism-based; set-up: route intravenous, dose 2 mg/kg, time <=24; conditions: in vivo
Cytochrome P450 2C19 = Cytochrome P450 2C19 (Homo sapiens, UniProt P33261); experiment: Inhibition of CYP2C19 in human liver microsomes using S-mephenytoin as substrate preincubated for 10 mins in presence of NADPH generating system followed by substrate addition and measured after 20 mins by LC-MS/MS analysis; assay type: ADME
[17] = Cmax in Sprague-Dawley rat at 6 mg/kg/day, IG administered for 7 consecutive days by LC-MS/MS analysis; assay type: ADME, organism-based; set-up: route […], time 7 day, dose 6 mg/kg/day; conditions: in vivo, po
[18] = Half life in Sprague-Dawley rat liver microsomes preincubated for 10 mins under shaking condition followed by NADPH generating system addition and measured up to 20 mins by LC-MS/MS analysis
[19] = Intrinsic clearance in human liver microsomes preincubated for 10 mins under shaking condition followed by NADPH generating system addition and measured up to 60 mins by LC-MS/MS analysis; assay type: ADME, Microsome; conditions: 1 h, time <=70 min
in vitro = conditions: human, liver microsomes

Cytochrome P450 2D6, sequence (P10635 whole entry): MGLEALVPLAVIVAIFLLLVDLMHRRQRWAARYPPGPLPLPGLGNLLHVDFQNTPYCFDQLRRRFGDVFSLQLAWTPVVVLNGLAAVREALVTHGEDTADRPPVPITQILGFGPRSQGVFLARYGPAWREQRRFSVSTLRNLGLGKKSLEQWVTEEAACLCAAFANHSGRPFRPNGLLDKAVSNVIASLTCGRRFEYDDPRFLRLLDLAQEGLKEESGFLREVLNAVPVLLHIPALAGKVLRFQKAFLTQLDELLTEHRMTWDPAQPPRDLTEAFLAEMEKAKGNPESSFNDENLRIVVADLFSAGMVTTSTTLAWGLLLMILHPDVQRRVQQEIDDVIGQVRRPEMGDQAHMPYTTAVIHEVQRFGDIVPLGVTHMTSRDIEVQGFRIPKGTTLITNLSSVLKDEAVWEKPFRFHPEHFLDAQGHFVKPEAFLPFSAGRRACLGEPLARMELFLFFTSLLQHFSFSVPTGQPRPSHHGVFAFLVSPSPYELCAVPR
Cytochrome P450 2C19, sequence (P33261 whole entry): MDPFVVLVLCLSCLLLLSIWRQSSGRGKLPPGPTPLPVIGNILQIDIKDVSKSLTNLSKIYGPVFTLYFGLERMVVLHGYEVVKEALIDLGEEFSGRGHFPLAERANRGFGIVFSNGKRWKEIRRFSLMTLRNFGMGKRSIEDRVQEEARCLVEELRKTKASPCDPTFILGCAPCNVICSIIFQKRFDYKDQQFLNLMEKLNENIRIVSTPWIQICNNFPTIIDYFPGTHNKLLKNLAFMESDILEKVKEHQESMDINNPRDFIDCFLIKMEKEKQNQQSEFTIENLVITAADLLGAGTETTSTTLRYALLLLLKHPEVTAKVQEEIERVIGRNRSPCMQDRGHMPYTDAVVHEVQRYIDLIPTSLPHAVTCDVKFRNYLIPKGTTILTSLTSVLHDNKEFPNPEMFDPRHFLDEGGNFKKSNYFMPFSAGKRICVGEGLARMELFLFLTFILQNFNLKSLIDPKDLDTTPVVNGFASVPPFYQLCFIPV

Compound: CS(=O)(=O)O.[2H]C([2H])=CC(=O)Nc1cc(Nc2nccc(-c3cn(C([2H])([2H])[2H])c4ccccc34)n2)c(OC)cc1N(C)CCN(C)C
- bioavailability [1]: 41.2%
- CLint [2]: 58.6 µL/min/mg
- Activity [3]: Non-Toxic
- half-life at 168 h (in vivo [4]): 3.27 h
- IC50 (Cytochrome P450 2D6): > 50 µM
- CLint [5]: 40 µL/min/mg
- Drug metabolism [6]: Metabolite_Detected
- CL/F at 168 h (in vivo [7]): 325 mL/min/kg
- IC50 (Cytochrome P450 2C8): 29.3 µM
- Drug metabolism [8]: Metabolite_Detected
- Tmax [9]: 5 h
- half-life at 24 h (in vivo [10]): 5.4 h
- CL/F at 24 h (in vivo [11]): 248 mL/min/kg
- half-life at 24 h (in vivo [12]): 4.04 h
- bioavailability [13]: 43%
- half-life at 1 h [14]: 0.395 h
- Drug metabolism [15]: Metabolite_Detected
- Cmax [16]: 277 nM
- IC50 (Cytochrome P450 2C19): 43 µM
- Cmax [17]: 113 nM
- half-life at 20 min [18]: 0.577 h
- CLint [19]: 9.6 µL/min/mg
- half-life at 1 h (in vitro): 2.4 h

Source: ChEMBL document CHEMBL4732150 (J Med Chem, 2021)
